Test results reported in article PMC5914092, “Evaluation of Aldose Reductase, Protein Glycation, and Antioxidant Inhibitory Activities of Bioactive Flavonoids in Matricaria recutita L. and Their Structure-Activity Relationship” (Journal of Diabetes Research, 2018).
Entries after “also recorded” stand apart in the source; their conditions may differ. Like-named read-outs stand apart in the source and are kept apart here. Marks after values point to notes of the source that are not given here.

Tests used:
[1] = tested on: advanced glycation end products (AGEs); assay: Methylglyoxal-bovine serum albumin assay investigating AGE formation; format: biochemical; conditions: methylglyoxal-BSA, 37°C 24 h, mean ± RSD
Protocol: Bovine serum albumin (50 mg/mL) was incubated with methylglyoxal (100 mM) in sodium phosphate buffer (0.1 M, pH 7.4) in the presence of various concentrations of the compounds (including a control) at 37°C for 24 h. Then the fluorescent intensity was measured at an excitation wavelength of 355 nm and an emission wavelength of 460 nm with a luminescence spectrometer LS50B (PerkinElmer Ltd., Buckinghamshire, England). […] All reagents and samples were sterilized by filtration through […] membrane filters.

[2] = tested on: sorbitol accumulation in rat lens; assay: Lens culture and intracellular sorbitol measurement (ex vivo, high glucose); format: cell-based; conditions: for Sorbitol content (mg)/lens wet weight (g): rat lens cultured 6 d in medium with 30 mM glucose, control by G 1.47 ± 0.02; for inhibition at 5 µg/mL: read-out: Inhibition (%) of sorbitol accumulation in rat lens
Protocol: Lens isolated from 10-week old Sprague-Dawley rats were cultured for 6 d in TC-199 medium containing 15% fetal bovine serum, 100 units/mL penicillin, and 0.1 mg/mL streptomycin, under sterile conditions and an atmosphere of 5% CO2 and 95% air at 37°C. Samples were dissolved in DMSO. The lens were divided into three groups (each group n = 3) and cultured in medium containing 30 mM glucose and RLAR-active compounds. Each lens was placed in a well containing 2.0 mL medium. Sorbitol was identified by HPLC after its derivatization by reaction with benzoic acid to form a fluorescent compound [25].

[3] = target: T1, rat lens aldose reductase (RLAR) (Rattus norvegicus, UniProt P07943); conditions: cited from earlier work; for IC50: compounds isolated from other plant sources, read-out: RLAR inhibitory activity (reported data)
T1 construct: The supernatant was collected and used as RLAR; from tissue; host or cells: lens of Sprague-Dawley rats (supernatant of the homogenate after 10,000g)

[4] = DPPH free radical scavenging capacity; conditions: concentrations 15, 30, 75 μg/mL, mean ± RSD
Protocol: DPPH, a stable free radical, was used to determine the free radical-scavenging activity of the extracts. Briefly, a 0.32 mM DPPH solution in MeOH were prepared, and 180 μL of this solution was mixed with 30 μL of each sample at concentrations of 0.05–1.0 mg/mL in DMSO. After 20 min of incubation in the dark, the decrease in the absorbance of the solution was measured at 570 nm on a microplate reader (EL800 Universal Microplate reader, Bio-Tek instruments, Winooski, VT, USA). DPPH radical-scavenging activity was expressed as the percentage inhibition (%) of DPPH in this assay system and was calculated as (1 − B/A) × 100, where A and B are the activities of DPPH without and with the test material, respectively.

[5] = target: T1, rat lens aldose reductase (RLAR); assay: Determination of RLAR inhibition (NADPH absorbance decrease at 340 nm, DL-glyceraldehyde substrate); format: biochemical; conditions: crude RLAR homogenate; inhibitor concentrations 1, 5, 10 μg/mL; mean ± RSD; NI: no inhibition
Protocol: Crude RLAR was prepared as follows: lenses were removed from Sprague-Dawley rats (weighing 250–280 g) and frozen at −70°C until use. Noncataractous transparent lenses were pooled and a homogenate was prepared in 0.1 M phosphate buffered saline (pH 6.2). The RLAR homogenate was then centrifuged at 10,000g for 20 min at 4°C in a refrigerated centrifuge. The supernatant was collected and used as RLAR [22].
A total of 531 μL of 0.1 M potassium buffer (pH 7.0), 90 μL of NADPH solution (1.6 mM in potassium buffer), 90 μL of RLAR homogenate (6.5 U/mg), 90 μL of ammonium sulfate solution (4 M in potassium buffer), and 90 μL of DL-glyceraldehyde (25 mM in potassium buffer) were mixed with 9 μL of different concentrations of samples (1–0.1 mg/mL in DMSO, less than 1% in total mixture) in a cuvette, and the activity of RLAR was assessed spectrophotometrically by measuring the decrease in NADPH absorbance at 340 nm for 3 minutes using a spectrophotometer (SECOMAM, Ales Cedex, France).

[6] = concentrations 10, 25, 50 μg/mL, NI: no inhibition
[7] = sample 5 μg/mL, mean ± SD (n = 3)
[8] = rat lens cultured in 30 mM glucose, sample 5 μg/mL, mean ± SD (n = 3)

IC50 [1, 6] | SMILES | Sorbitol content (mg)/lens wet weight (g) [2, 7] | inhibition at 5 µg/mL [2, 8] | further results
> 97 µM | O=C(O)[C@H]1O[C@@H](Oc2cc(O)c3c(=O)cc(-c4ccc(O)cc4)oc3c2)[C@H](O)[C@@H](O)[C@@H]1O [Compound 5, apigenin-7-O-β-D-glucuronide] | 0.29 ± 0.01^b mg/g | 80.3 ± 2.78% | –
> 97 µM | COc1cc2oc(-c3ccc(O)cc3)c(OC)c(=O)c2c(O)c1OC [Compound 3, penduletin] | – | – | IC50 ([4]; NI: no inhibition): > 208 µM; IC50 DPPH ([4]; NI: no inhibition): almost no effect; IC50 AGEs [1, 6]: did not show inhibitory activities; IC50 [5]: > 28 µM; IC50 RLAR [5]: inactive; also recorded: did not show inhibitory activities
> 97 µM | O=c1cc(-c2ccc(O)cc2)oc2cc(O)c(O)c(O)c12 [Compound 8, 6-hydroxyapigenin] | – | – | IC50 ([4]; NI: no inhibition): > 208 µM; IC50 DPPH ([4]; NI: no inhibition): almost no effect; IC50 AGEs [1, 6]: did not show inhibitory activities; IC50 [5]: > 28 µM; IC50 RLAR [5]: inactive; also recorded: did not show inhibitory activities
> 97 µM | O=c1cc(-c2ccc(O)cc2)oc2cc(O)cc(O)c12 [Compound 9, apigenin] | 0.19 ± 0.01^a mg/g | 87.1 ± 4.48% | –

Further lines, the compound ahead of its results:

SMILES | IC50 [1, 6] | Sorbitol content (mg)/lens wet weight (g) [2, 7] | inhibition at 5 µg/mL [2, 8] | further results
N=C(N)NN [Aminoguanidine, aminoguanidine, reference compound] | – | – | – | IC50 AGEs ([1]; concentrations 20, 100, 200 μg/mL): 109.10 ± 3.47^a μg/mL
O=C(O)[C@H]1O[C@@H](Oc2cc(O)c3c(=O)cc(-c4ccc(O)c(O)c4)oc3c2)[C@H](O)[C@@H](O)[C@@H]1O [Compound 6, luteolin-7-O-β-D-glucuronide] | – | 0.12 ± 0.01^a mg/g | 91.8 ± 6.74% | –
O=c1cc(-c2ccc(O)c(O)c2)oc2cc(O[C@@H]3O[C@H](CO)[C@@H](O)[C@H](O)[C@H]3O)cc(O)c12 [Compound 2, luteolin-7-O-β-D-glucoside] | > 97 µM | 0.07 ± 0.01^a mg/g | 95.2 ± 8.18% | IC50 [3]: 0.99 µM
O=c1c(O)c(-c2ccc(O)c(O)c2)oc2cc(O)cc(O)c12 [Quercetin, quercetin, reference compound] | – | 0.21 ± 0.01^a mg/g | 85.7 ± 3.23% | –
O=c1cc(-c2ccc(O)cc2)oc2cc(O[C@@H]3O[C@H](CO)[C@@H](O)[C@H](O)[C@H]3O)cc(O)c12 [Compound 1, apigenin-7-O-β-D-glucoside] | > 97 µM | 0.72 ± 0.01^c mg/g | 51 ± 1.68% | IC50 ([4]; NI: no inhibition): > 250 µM; IC50 [3]: 23 µM
O=C1O[C@H]([C@@H](O)CO)C(O)=C1O [L-Ascorbic acid, reference compound] | – | – | – | IC50 DPPH ([4]; three independent experiments in duplicate): 6.60 ± 0.33^a μg/mL
O=C(C=Cc1ccc(O)c(O)c1)OC1CC(O)(C(=O)O)CC(OC(=O)C=Cc2ccc(O)c(O)c2)C1O (stereo not drawn) [Compound 7, 3,5-O-di-caffeoylquinic acid] | > 97 µM | 0.20 ± 0.01^a mg/g | – | inhibition at 5 µg/mL ([2]; Rattus norvegicus): 86.4 ± 4.28%
O=c1cc(-c2ccc(O)c(O)c2)oc2cc(O)cc(O[C@@H]3O[C@H](CO)[C@@H](O)[C@H](O)[C@H]3O)c12 [luteolin-5-O-β-D-glucopyranoside, reference compound] | – | – | – | Inhibitory activity on RLAR relative to its precursor (luteolin) ([3]; isolated from Cirsium maackii): ~1.58 times
O=c1cc(-c2ccc(O)c(O)c2)oc2cc(O)cc(O)c12 [Compound 10, luteolin] | – | 0.12 ± 0.01^a mg/g | 91.8 ± 6.87% | –
